Results as given in patent US9957264B2 (Merck Sharp & Dohme Corp., priority 2013, dated 2018).

What was measured:
[1] = target: JAK2 (recombinant purified GST-tagged catalytic domain) (Homo sapiens (Human), UniProt O60674); assay: Jak Biochemical HTRF Assay (JAK2); conditions: [ATP] 8.5 μM
[2] = target: JAK1 (recombinant purified GST-tagged catalytic domain) (Homo sapiens (Human), UniProt P23458); assay: Jak Biochemical HTRF Assay (JAK1); conditions: [ATP] 31.8 μM
Procedure, shortened: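 Kinase reaction with biotinylated peptide substrate was started by ATP addition and run 120 min at room temperature, then quenched with EDTA stop buffer containing streptavidin-Dylight 650 and Eu-pY20 antibody. HTRF read 60 min later (665/615 nm ratio); percent inhibition vs log concentration fit to 4-parameter curve for IC50.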

Sequence of JAK1 (recombinant purified GST-tagged catalytic domain) (P23458 875-1153): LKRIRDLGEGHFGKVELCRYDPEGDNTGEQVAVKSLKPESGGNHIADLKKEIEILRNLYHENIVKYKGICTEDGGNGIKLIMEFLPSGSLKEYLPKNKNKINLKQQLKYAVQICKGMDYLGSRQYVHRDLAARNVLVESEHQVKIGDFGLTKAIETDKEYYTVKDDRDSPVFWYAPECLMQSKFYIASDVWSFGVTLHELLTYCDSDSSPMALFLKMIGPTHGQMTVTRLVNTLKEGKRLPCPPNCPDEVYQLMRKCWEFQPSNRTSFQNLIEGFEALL
Sequence of JAK2 (recombinant purified GST-tagged catalytic domain) (O60674 849-1124): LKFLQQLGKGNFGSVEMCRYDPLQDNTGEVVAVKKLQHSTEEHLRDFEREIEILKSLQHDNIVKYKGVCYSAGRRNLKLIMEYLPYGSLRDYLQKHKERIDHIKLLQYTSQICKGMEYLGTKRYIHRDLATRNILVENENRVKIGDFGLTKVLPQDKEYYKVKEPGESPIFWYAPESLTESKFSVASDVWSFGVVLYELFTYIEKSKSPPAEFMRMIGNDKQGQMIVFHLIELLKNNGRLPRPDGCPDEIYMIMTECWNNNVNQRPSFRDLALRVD

Row | SMILES | IC50 [1] [nM] | IC50 [2] [nM]
1 | CCS(=O)(=O)c1ccc(Nc2nn(C3(CC#N)CCCC3)c3cc[nH]c(=O)c23)cc1 [Example 5-133, 2-(1-(3-((4-(ethylsulfonyl)phenyl)amino)-4-oxo-4,5-dihydro-1H-pyrazolo[4,3-c]pyridin-1-yl)cyclopentyl) acetonitrile] | 1.38 | 0.44
2 | CN(C(C)(C)C)S(=O)(=O)c1ccc(Nc2nn(C3(CC#N)CCCC3)c3cc[nH]c(=O)c23)cc1 [Example 5-134, N-(tert-butyl)-4-((1-(1-(cyanomethyl)cyclopentyl)-4-oxo-4,5-dihydro-1H-pyrazolo[4,3-c]pyridin-3-yl)amino)-N-methylbenzene sulfonamide] | 1.07 | 0.7
3 | CCN(C(C)(C)C)S(=O)(=O)c1ccc(Nc2nn(C3(CC#N)CCCC3)c3cc[nH]c(=O)c23)cc1 [Example 5-135, N-(tert-butyl)-4-((1-(1-(cyanomethyl)cyclopentyl)-4-oxo-4,5-dihydro-1H-pyrazolo[4,3-c]pyridin-3-yl)amino)-N-ethylbenzene sulfonamide] | 1.53 | 0.98
4 | CCN(CC)S(=O)(=O)c1ccc(Nc2nn(C3(CC#N)CCCC3)c3cc[nH]c(=O)c23)cc1 [Example 5-136, 4-((1-(1-(cyanomethyl)cyclopentyl)-4-oxo-4,5-dihydro-1H-pyrazolo[4,3-c]pyridin-3-yl)amino)-N,N-diethylbenzenesulfonamide] | 1.01 | 0.56
5 | CN(C(C)(C)C(=O)OC(C)(C)C)S(=O)(=O)c1ccc(Nc2nn(C3(CC#N)CCCC3)c3cc[nH]c(=O)c23)cc1 [Example 5-137, tert-butyl 2-(4-((1-(1-(cyanomethyl)cyclopentyl)-4-oxo-4,5-dihydro-1H-pyrazolo[4,3-c]pyridin-3-yl)amino)-N-methylphenylsulfonamido)-2-methylpropanoate] | 5.85 | 1.9
6 | N#CCC1(n2nc(Nc3ccc4c(c3)CN(CC(F)(F)F)C4=O)c3c(=O)[nH]ccc32)CCCC1 [Example 5-138, 2-(1-(4-oxo-3-((1-oxo-2-(2,2,2-trifluoroethyl)isoindolin-5-yl)amino)-4,5-dihydro-1H-pyrazolo[4,3-c]pyridin-1-yl)cyclopentyl)acetonitrile] | 1.51 | 0.31
7 | CC(C)(C)OC(=O)C(C)(C)N1Cc2cc(Nc3nn(C4(CC#N)CCCC4)c4cc[nH]c(=O)c34)ccc2C1=O [Example 5-140, tert-butyl 2-(5-((1-(1-(cyanomethyl)cyclopentyl)-4-oxo-4,5-dihydro-1H-pyrazolo[4,3-c]pyridin-3-yl)amino)-1-oxoisoindolin-2-yl)-2-methylpropanoate] | 0.74 | 0.32
8 | COC(=O)N1CCC(CC#N)(n2nc(Nc3ccc(C#N)cc3)c3c(=O)[nH]ccc32)CC1 [Example 5-145, methyl 4-(cyanomethyl)-4-(3-((4-cyanophenyl)amino)-4-oxo-4,5-dihydro-1H-pyrazolo[4,3-c]pyridin-1-yl)piperidine-1-carboxylate] | 1.22 | 0.19
9 | COC(=O)N1CCC(CC#N)(n2nc(Nc3ccc(F)cc3)c3c(=O)[nH]ccc32)CC1 [Example 5-146, methyl 4-(cyanomethyl)-4-(3-((4-fluorophenyl)amino)-4-oxo-4,5-dihydro-1H-pyrazolo[4,3-c]pyridin-1-yl)piperidine-1-carboxylate] | 2 | 0.3
10 | COC(=O)N1CCC(CC#N)(n2nc(Nc3ccc(C(F)(F)F)cc3)c3c(=O)[nH]ccc32)CC1 [Example 5-147, methyl 4-(cyanomethyl)-4-(4-oxo-3-((4-(trifluoromethyl)phenyl)amino)-4,5-dihydro-1H-pyrazolo[4,3-c]pyridin-1-yl)piperidine-1-carboxylate] | 2.95 | 0.32
11 | COC(=O)N1CCC(CC#N)(n2nc(Nc3ccc4ncccc4c3)c3c(=O)[nH]ccc32)CC1 [Example 5-148, methyl 4-(cyanomethyl)-4-(4-oxo-3-(quinolin-6-ylamino)-4,5-dihydro-1H-pyrazolo[4,3-c]pyridin-1-yl)piperidine-1-carboxylate] | 0.84 | 0.08
12 | COC(=O)N1CCC(CC#N)(n2nc(Nc3ccc(S(=O)(=O)C(C)C)cc3)c3c(=O)[nH]ccc32)CC1 [Example 5-149, methyl 4-(cyanomethyl)-4-(3-((4-(isopropylsulfonyl)phenyl)amino)-4-oxo-4,5-dihydro-1H-pyrazolo[4,3-c]pyridin-1-yl)piperidine-1-carboxylate] | 0.23 | 0.12
13 | COC(=O)N1CCC(CC#N)(n2nc(Nc3ccc(S(=O)(=O)C(C)(C)C)cc3)c3c(=O)[nH]ccc32)CC1 [Example 5-150, methyl 4-(3-((4-(tert-butylsulfonyl)phenyl)amino)-4-oxo-4,5-dihydro-1H-pyrazolo [4,3-c]pyridin-1-yl)-4-(cyanomethyl)piperidine-1-carboxylate] | 0.14 | 0.1
14 | Cc1cc(Nc2nn([C@@]3(CC#N)CCCC[C@H]3F)c3cc[nH]c(=O)c23)ccc1C(=O)N1CCOCC1 [Example 5-151, 2-((1R,2R)-2-fluoro-1-(3-((3-methyl-4-(morpholine-4-carbonyl)phenyl)amino)-4-oxo-4,5-dihydro-1H-pyrazolo[4,3-c]pyridin-1-yl)cyclohexyl)acetonitrile] | 0.1 | 0.09
15 | N#CC[C@]1(n2nc(Nc3ccnc(F)c3)c3c(=O)[nH]ccc32)CCCC[C@H]1F [Example 5-152, 2-((1R,2R)-2-fluoro-1-(3-((2-fluoropyridin-4-yl)amino)-4-oxo-4,5-dihydro-1H-pyrazolo[4,3-c]pyridin-1-yl)cyclohexyl)acetonitrile] | 0.68 | 0.09
16 | Cc1cc(Nc2nn([C@@]3(CC#N)CCCC[C@H]3F)c3cc[nH]c(=O)c23)ccc1C(=O)N1CCC(F)(F)CC1 [Example 5-153, 2-((1R,2R)-1-(3-((4-(4,4-difluoropiperidine-1-carbonyl)-3-methylphenyl)amino)-4-oxo-4,5-dihydro-1H-pyrazolo[4,3-c]pyridin-1-yl)-2-fluorocyclohexyl) acetonitrile] | 0.08 | 0.09
17 | Cc1cc(Nc2nn([C@@]3(CC#N)CCCC[C@H]3F)c3cc[nH]c(=O)c23)ccc1C(=O)N1CCSCC1 [Example 5-154, 2-((1R,2R)-2-fluoro-1-(3-((3-methyl-4-(thiomorpholine-4-carbonyl)phenyl)amino)-4-oxo-4,5-dihydro-1H-pyrazolo[4,3-c]pyridin-1-yl)cyclohexyl)acetonitrile] | 0.08 | 0.09
18 | Cc1cc(Nc2nn([C@]3(CC#N)CC[C@@H](C(=O)OC(C)(C)C)OC3)c3cc[nH]c(=O)c23)ccc1C(=O)N1CCSC1 [Example 5-155, (2S,5S)-tert-butyl 5-(cyanomethyl)-5-(3-((3-methyl-4-(thiazolidine-3-carbonyl)phenyl)amino)-4-oxo-4,5-dihydro-1H-pyrazolo[4,3-c]pyridin-1-yl)tetrahydro-2H-pyran-2-carboxylate] | 0.39 | 0.18
19 | CC(C)NC(C)(C)c1ccc(Nc2nn([C@@]3(CC#N)CCCC[C@H]3F)c3cc[nH]c(=O)c23)cc1 [Example 5-175, [(1R,2R)-2-fluoro-1-{3-[(4-{1-methyl-1-[(1-methylethyl)amino]ethyl}phenyl)amino]-4-oxo-4,5-dihydro-1H-pyrazolo[4,3-c]pyridin-1-yl}cyclohexyl]acetonitrile] | 0.06 | 0.09
